Reference: ChEMBL document CHEMBL1128166, “Synthesis and antiviral activity of rigid acyclonucleotide analogs” (Bioorg Med Chem Lett, 1995)

B1: Guanylate kinase (Homo sapiens), Q16774 (protein)
chain: MSGPRPVVLSGPSGAGKSTLLKRLLQEHSGIFGFSVSHTTRNPRPGEENGKDYYFVTREVMQRDIAAGDFIEHAEFSGNLYGTSKVAVQAVQAMNRICVLDVDLQGVRNIKATDLRPIYISVQPPSLHVLEQRLRQRNTETEESLVKRLAAAQADMESSKEPGLFDVVIINDSLDQAYAELKEALSEEIKKAQRTGA

Tests used:
MRC5 [1] = assay: The lowest concentration of compound producing overt cytotoxicity in virus-free MRC-5 cell cultures; type: functional; details: Homo sapiens
MT4 [2] = assay: Concentration required to inhibit HIV-1-induced cytopathic effect by 50% in MT-4 cells; type: functional, cell-based; details: Homo sapiens
MRC5 [3] = assay: Anti-herpes virus activity was evaluated against human cytomegalovirus (HCMV, strain AD-169) grown in MRC-5 cells; type: functional, cell-based
MT4 [4] = assay: Cytotoxic concentration required to reduce the viability of MT-4 cells; type: functional; details: Homo sapiens
Vero [5] = assay: Anti-herpes virus activity was evaluated against Herpes simplex virus type 1 (HSV-1,strain HF) grown in Vero cells; type: functional, cell-based; details: Chlorocebus sabaeus
Vero [6] = assay: Anti-herpes virus activity was evaluated against Herpes simplex virus type 2 (HSV-2,strain G) grown in Vero cells; type: functional, cell-based; details: Chlorocebus sabaeus
Vero [7] = assay: The lowest concentration of compound producing overt cytotoxicity in virus-free vero cell cultures; type: functional; details: Chlorocebus sabaeus
C8166 = assay: Concentration required to inhibit p24 viral antigen production by 50% in C-8166 cells; type: functional, cell-based; details: Homo sapiens
[8] = test system: Guanylate kinase (Sus scrofa); assay: Percent efficiency phosphorylated by guanylate kinase taken from hog brain
[9] = substrate: C=C(COCP(=O)(O)O)Cn1cnc2c(O)nc(N)nc21; assay: (§1) Michaelis-Menten constant (Km) for guanylate kinase was determined; details: Sus scrofa
[10] = substrate: Nc1nc2c(ncn2[C@@H]2O[C@H](COP(=O)(O)O)[C@@H](O)[C@H]2O)c(=O)[nH]1; assay: as §1
[11] = substrate: C=C(COCP(=O)(O)O)Cn1cnc2c(O)nc(N)nc21; assay: Vmax for guanylate kinase was determined; details: Sus scrofa

Row | Molecule | CC50 (MRC5 [1]) [µM] | EC50 (MT4 [2]) [µM] | EC50 (MRC5 [3]) [µM] | CC50 (MT4 [4]) [µM] | EC50 (Vero [5]) [µM] | EC50 (Vero [6]) [µM] | CC50 (Vero [7]) [µM] | EC50 (C8166) [µM] | Efficacy [8] [%] | Km [9] [µM] | Km [10] [µM] | Vmax [11] [%]
1 | Nc1ccn(C/C=C\COCP(=O)(O)O)c(=O)n1 | > 250 | > 100 | > 250 | > 100 | > 250 | > 250 | > 250 | > 100 |  |  |  | 
2 | Cc1cn([C@H]2C[C@H](N=[N+]=[N-])[C@@H](CO)O2)c(=O)[nH]c1=O [ZIDOVUDINE] |  | 0.035 |  | 113 |  |  |  | 0.03 |  |  |  | 
3 | Nc1ncnc2c1ncn2CCOCP(=O)(O)O [ADEFOVIR] | > 250 | 22 | 36 | 187 | 58 | 69 | ≥ 250 | 1.7 |  |  |  | 
4 | C=C(COCP(=O)(O)O)Cn1ccc(N)nc1=O | > 250 | > 100 | > 250 | > 100 | > 250 | > 250 | > 250 | > 100 |  |  |  | 
5 | Nc1ccn(CC#CCOCP(=O)(O)O)c(=O)n1 | > 250 | > 100 | > 250 | > 100 | > 250 | > 250 | > 250 | > 100 |  |  |  | 
6 | Nc1ncnc2c1ncn2C/C=C\COCP(=O)(O)O | > 250 | 170 | > 250 | > 1000 | > 250 | > 250 | ≥ 250 | 38 |  |  |  | 
7 | Nc1ncnc2c1ncn2CC#CCOCP(=O)(O)O | > 250 | > 100 | > 250 | 800 | > 250 | > 250 | ≥ 250 | > 100 |  |  |  | 
8 | Nc1nc(O)c2ncn(C/C=C\COCP(=O)(O)O)c2n1 | > 250 | > 100 | > 250 | > 1000 | 37 | > 250 | > 250 | > 100 |  |  |  | 
9 | C=C(COCP(=O)(O)O)Cn1cnc2c(O)nc(N)nc21 | > 250 | 25 | 34 | 1800 | > 250 | > 250 | > 250 | 1.9 | 0.6 |  |  | 
10 | C=C(COCP(=O)(O)O)Cn1cnc2c(N)ncnc21 | > 250 | > 100 | > 250 | > 1000 | 36 | > 250 | > 250 | > 100 |  |  |  | 
11 | Nc1nc2c(ncn2COCCO)c(=O)[nH]1 [ACYCLOVIR] | ≥ 100 |  | 18 |  | 6 | 3 | > 100 |  |  |  |  | 
12 | B1 |  |  |  |  |  |  |  |  |  | 238 | 18 | 8
